# Test results: ChEMBL document CHEMBL1201862, “PubChem BioAssay data set” (2004)
#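 Cells were grown in 96-well plates and exposed to each compound for 48 hours at five concentrations; endpoints were interpolated linearly between bracketing concentrations, or set to the highest concentration if not reached. At the GI50, growth is halved.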 The source made the active and inactive calls. No stated cut-off is given here; in the data, active = GI50 up to about 1.1 µM and inactive = higher.
# Assays:
# Experiment in all cases: DTP human tumour cell line panel, 48 h
# [1] = system: A498
# [2] = system: SK-MEL-5
# [3] = system: HL-60
# [4] = system: U-251
# [5] = system: SNB-19
# [6] = system: SK-MEL-28
# [7] = system: NCI-H460
# [8] = system: IGROV-1
# [9] = system: HCT-116
# [10] = system: UACC-62
# [11] = system: MDA-MB-435
# [12] = system: CAKI-1
# [13] = system: HOP-62
# [14] = system: OVCAR-5
# [15] = system: OVCAR-8
# [16] = system: K562
# [17] = system: UACC-257
# [18] = system: KM12
# [19] = system: EKVX
# [20] = system: A549
# [21] = system: OVCAR-4
# [22] = system: UO-31
# [23] = system: NCI-H226
# [24] = system: NCI-H23
# [25] = system: Malme-3M
# [26] = system: PC-3
# [27] = system: HCT-15
# [28] = system: HT-29
# [29] = system: RXF 393
# [30] = system: SK-MEL-2
# [31] = system: 786-0
# [32] = system: Hs-578T
# [33] = system: SR
# [34] = system: SF-295
# [35] = system: M14
# [36] = system: T47D
# [37] = system: OVCAR-3
# [38] = system: MDA-MB-231
# [39] = system: MOLT-4
# [40] = system: BT-549
# [41] = system: SW-620
# [42] = system: HOP-92
# [43] = system: LOX IMVI
# [44] = system: TK-10
# [45] = system: SF-268
# [46] = system: MDA-N
# [47] = system: ACHN
# [48] = system: SN12C
# [49] = system: NCI/ADR-RES
# [50] = system: NCI-H522
# [51] = system: RPMI-8226
# [52] = system: SF-539
# [53] = system: MCF7
# [54] = system: DU-145
# [55] = system: CCRF-CEM
# [56] = system: COLO 205
# [57] = system: SK-OV-3
# [58] = system: HCC 2998
# [59] = system: SNB-75
smiles,measurement,setting,value
c1ccc2c(c1)nnn2CN1CCOCC1,GI50,[1],> 100 µM (inactive)
same,GI50,[2],> 100 µM (inactive)
same,GI50,[3],29.2 µM (inactive)
same,GI50,[4],> 100 µM (inactive)
same,GI50,[5],> 100 µM (inactive)
same,GI50,[6],> 100 µM (inactive)
same,GI50,[7],46.3 µM (inactive)
same,GI50,[8],94.4 µM (inactive)
same,GI50,[9],> 100 µM (inactive)
same,GI50,[10],58.3 µM (inactive)
same,GI50,[11],> 100 µM (inactive)
same,GI50,[12],75.7 µM (inactive)
same,GI50,[13],> 100 µM (inactive)
same,GI50,[14],> 100 µM (inactive)
same,GI50,[15],36.3 µM (inactive)
same,GI50,[16],45 µM (inactive)
same,GI50,[17],> 100 µM (inactive)
same,GI50,[18],> 100 µM (inactive)
same,GI50,[19],> 100 µM (inactive)
same,GI50,[20],> 100 µM (inactive)
same,GI50,[21],> 100 µM (inactive)
same,GI50,[22],> 100 µM (inactive)
same,GI50,[23],> 100 µM (inactive)
same,GI50,[24],> 100 µM (inactive)
same,GI50,[25],41.8 µM (inactive)
same,GI50,[26],> 100 µM (inactive)
same,GI50,[27],> 100 µM
same,GI50,[28],> 100 µM (inactive)
same,GI50,[29],48.5 µM (inactive)
same,GI50,[30],> 100 µM (inactive)
same,GI50,[31],> 100 µM (inactive)
same,GI50,[32],19.2 µM (inactive)
same,GI50,[33],25 µM (inactive)
same,GI50,[34],> 100 µM (inactive)
same,GI50,[35],> 100 µM (inactive)
same,GI50,[36],> 100 µM (inactive)
same,GI50,[37],28.9 µM (inactive)
same,GI50,[38],> 100 µM (inactive)
same,GI50,[39],35.6 µM (inactive)
same,GI50,[40],> 100 µM (inactive)
same,GI50,[41],28.3 µM (inactive)
same,GI50,[42],45.8 µM (inactive)
same,GI50,[43],36.6 µM (inactive)
same,GI50,[44],> 100 µM (inactive)
same,GI50,[45],63.8 µM (inactive)
same,GI50,[46],71.6 µM (inactive)
same,GI50,[47],> 100 µM (inactive)
same,GI50,[48],39.8 µM (inactive)
same,GI50,[49],> 100 µM (inactive)
same,GI50,[50],> 100 µM (inactive)
CC(C)(C)OC(=O)NCC(=O)N1CCN(C(=O)CNC(=O)OC(C)(C)C)CC1,GI50,[51],> 100 µM (inactive)
same,GI50,[1],> 100 µM (inactive)
same,GI50,[2],> 100 µM (inactive)
same,GI50,[3],> 100 µM (inactive)
same,GI50,[4],> 100 µM (inactive)
same,GI50,[5],> 100 µM (inactive)
same,GI50,[6],> 100 µM (inactive)
same,GI50,[8],> 100 µM (inactive)
same,GI50,[9],> 100 µM (inactive)
same,GI50,[10],> 100 µM (inactive)
same,GI50,[11],> 100 µM (inactive)
same,GI50,[12],> 100 µM (inactive)
same,GI50,[13],> 100 µM (inactive)
same,GI50,[14],> 100 µM (inactive)
same,GI50,[15],> 100 µM (inactive)
same,GI50,[16],> 100 µM (inactive)
same,GI50,[52],> 100 µM (inactive)
same,GI50,[17],> 100 µM (inactive)
same,GI50,[18],> 100 µM (inactive)
same,GI50,[19],> 100 µM (inactive)
same,GI50,[20],> 100 µM (inactive)
same,GI50,[21],> 100 µM (inactive)
same,GI50,[22],> 100 µM (inactive)
same,GI50,[23],> 100 µM (inactive)
same,GI50,[24],> 100 µM (inactive)
same,GI50,[26],> 100 µM (inactive)
same,GI50,[27],> 100 µM
same,GI50,[28],> 100 µM (inactive)
same,GI50,[30],> 100 µM (inactive)
same,GI50,[31],> 100 µM (inactive)
same,GI50,[33],> 100 µM (inactive)
same,GI50,[34],> 100 µM (inactive)
same,GI50,[35],> 100 µM (inactive)
same,GI50,[53],> 100 µM (inactive)
same,GI50,[36],> 100 µM (inactive)
same,GI50,[37],> 100 µM (inactive)
same,GI50,[38],> 100 µM (inactive)
same,GI50,[39],> 100 µM (inactive)
same,GI50,[40],> 100 µM (inactive)
same,GI50,[54],> 100 µM (inactive)
same,GI50,[41],> 100 µM (inactive)
same,GI50,[42],> 100 µM (inactive)
same,GI50,[43],> 100 µM (inactive)
same,GI50,[44],> 100 µM (inactive)
same,GI50,[45],18.7 µM (inactive)
same,GI50,[46],> 100 µM (inactive)
same,GI50,[55],> 100 µM (inactive)
same,GI50,[56],> 100 µM (inactive)
same,GI50,[57],> 100 µM (inactive)
same,GI50,[47],> 100 µM (inactive)
same,GI50,[58],> 100 µM (inactive)
same,GI50,[48],> 100 µM (inactive)
same,GI50,[49],> 100 µM (inactive)
same,GI50,[50],2.55 µM (inactive)
CC(=O)OC(Cn1cncn1)(Cn1cncn1)c1ccc(Cl)cc1Cl,GI50,[51],> 100 µM (inactive)
same,GI50,[1],> 100 µM (inactive)
same,GI50,[2],> 100 µM (inactive)
same,GI50,[3],> 100 µM (inactive)
same,GI50,[4],> 100 µM (inactive)
same,GI50,[5],> 100 µM (inactive)
same,GI50,[6],> 100 µM (inactive)
same,GI50,[7],> 100 µM (inactive)
same,GI50,[8],> 100 µM (inactive)
same,GI50,[11],> 100 µM (inactive)
same,GI50,[12],> 100 µM (inactive)
same,GI50,[13],> 100 µM (inactive)
same,GI50,[14],> 100 µM (inactive)
same,GI50,[15],> 100 µM (inactive)
same,GI50,[16],> 100 µM (inactive)
same,GI50,[52],> 100 µM (inactive)
same,GI50,[17],> 100 µM (inactive)
same,GI50,[18],> 100 µM (inactive)
same,GI50,[19],> 100 µM (inactive)
same,GI50,[20],> 100 µM (inactive)
same,GI50,[21],> 100 µM (inactive)
same,GI50,[22],> 100 µM (inactive)
same,GI50,[23],> 100 µM (inactive)
same,GI50,[26],> 100 µM (inactive)
same,GI50,[27],> 100 µM
same,GI50,[28],> 100 µM (inactive)
same,GI50,[29],> 100 µM (inactive)
same,GI50,[30],> 100 µM (inactive)
same,GI50,[31],> 100 µM (inactive)
same,GI50,[59],> 100 µM (inactive)
same,GI50,[32],> 100 µM (inactive)
same,GI50,[34],> 100 µM (inactive)
same,GI50,[35],> 100 µM (inactive)
same,GI50,[53],> 100 µM (inactive)
same,GI50,[36],> 100 µM (inactive)
same,GI50,[37],> 100 µM (inactive)
same,GI50,[38],> 100 µM (inactive)
same,GI50,[39],> 100 µM (inactive)
same,GI50,[40],> 100 µM (inactive)
same,GI50,[54],> 100 µM (inactive)
same,GI50,[41],> 100 µM (inactive)
same,GI50,[42],> 100 µM (inactive)
same,GI50,[43],> 100 µM (inactive)
same,GI50,[44],> 100 µM (inactive)
same,GI50,[45],> 100 µM (inactive)
same,GI50,[55],> 100 µM (inactive)
same,GI50,[56],> 100 µM (inactive)
same,GI50,[57],> 100 µM (inactive)
same,GI50,[58],> 100 µM (inactive)
same,GI50,[49],> 100 µM (inactive)
same,GI50,[50],> 100 µM (inactive)
